Assay results from patent publication US20160220466A1, “HAIR TREATMENT COMPOSITION” (Lonza Ltd., priority 2015, published 2016).

Legend:
[1] = system: level 9 bleached light brown hair; test: Differential Scanning Calorimetry of treated hair tress (denaturation temperature); conditions: 1.5% compound in water, pH4.5; tress soaked at 35° C. for 10 minutes, dried; DSC 90-180° C. at 4° C. per minute
Description: A 2.5 g tress of level 9 bleached light brown hair was treated with the aforementioned composition as follows.
a) Soaked the tress in 25 ml solution of the composition at 35° C. for 10 minutes
b) Excess liquor was squeezed off
c) Dry the hair tress using a hair drier.
The hair tress was then evaluated by Differential Scanning Calorimetry (Perkin Elmer DSC6000). Samples (˜5 mg) were cut and placed into a stainless steel pan and 50 microlitres deionised Water was added before sealing. The heating profile was between 90-180° C. at 4° C. per minute.

[2] = system: level 9 bleached light brown hair; test: Fourier Transform Infrared Spectroscopy (FTIR, UATR) of treated hair tress; conditions: 1.5% compound in water, pH4.5; tress soaked at 35° C. for 10 minutes, dried; same tresses as DSC
Description: The same hair tresses were also analysed by Fourier Transform Infrared Spectroscopy (FTIR) (Perkin Elmer Frontier) using an UATR attachment. […] For example, in the FTIR spectra, the peaks at 1853 cm^−1 and 1547 cm^−1 are peaks which are neither present in the AADEG itself or the untreated hair, and conversely peaks at 1888 cm^−1 and 1164 cm^−1 are present in the untreated hair, but not in the treated hair.
The same hair tresses were also analysed by Fourier Transform Infrared Spectroscopy (FTIR) (Perkin Elmer Frontier) using an UATR attachment. […] For example, in the FTIR spectra, the peaks at 1713 cm^−1 and 1481 cm^−1 are peaks which are neither present in the AADEG itself or the untreated hair, and conversely peaks at 1351 cm^−1 and 1303 cm^−1 are present in the untreated hair, but not in the treated hair.

SMILES | denaturation temperature (Td) of treated hair compared to hair treated with water alone [1] | 2nd derivative FTIR spectra of treated hair compared to untreated samples [2]
CC(=O)CC(=O)OCCOCCOC(=O)CC(C)=O [Acetoacetylated Diethylene Glycol] | significant increase | a number of new bonds
CC(=O)CC(=O)OCCOC(=O)CC(C)=O [Acetoacetylated Ethylene Glycol] | significant increase | a number of new bonds
CC(=O)CC(=O)OCCOCCOCCOC(=O)CC(C)=O [Acetoacetylated Triethylene Glycol] | significant increase | –
